Data published in the supplement of paper PMC10307832.

These cell lines were tested with CC1CC(=O)N(C2=CN=C(N=C2N1C3CCCC3)NC4=C(C=C(C=C4)C(=O)NC5CCN(CC5)C)OC)C [NPK76-II-72-1] (assay: relative viability (nuclei count vs DMSO), 5 days (fraction); higher = more cells survive). Settings: 1 µM.
Outline: (§1)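 Vehicle-anchored 1536-well plates of lung cancer cell lines, held overnight at 37 °C, were pinned with five library-drug doses (not always all listed) spaced by √10. No medium change followed over the next 5 days, after which the cells were fixed, permeabilised and Hoechst-stained together and imaged at 4×. Nuclei were counted with MetaXpress, and viability is treated-well nuclei over vehicle-well nuclei, taken as a median across plates. Plates passed with control CV below 25% and at least one doubling.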

Row | Cell Line | relative viability
1 | PC-3 [JPC-3] | 1.07

The cell lines below were run with CC[C@@H]1C(=O)N(C)c2cnc(Nc3ccc(C(=O)NC4CCN(C)CC4)cc3OC)nc2N1C1CCCC1 [BI-2536] in the same assay as above. Settings: 0.01 µM.
Outline: as §1

Row | Cell Line | relative viability
2 | 201T | 0.996
3 | NCI-H1915 | 0.977
4 | HCC-827 | 1.05
5 | LXF-289 | 1.04
6 | NCI-H23 | 0.926
7 | NCI-H1299 | 0.968
8 | NCI-H647 | 0.925
9 | CAL-12T | 0.882
10 | NCI-H1651 | 0.961
11 | EPLC-272H | 0.852
12 | NCI-H2228 | 0.972
13 | NCI-H1792 | 1.03
14 | NCI-H1355 | 1.01
15 | NCI-H3122 | 0.992
16 | NCI-H1437 | 0.981
17 | NCI-H1755 | 0.994
18 | NCI-H2023 | 0.954
19 | HCC-15 | 1.04
20 | NCI-H1793 | 0.912
21 | PC-14 | 0.998
22 | EKVX | 0.966
23 | LC-2-ad | 0.954
24 | NCI-H1563 | 0.985
25 | NCI-H1944 | 0.902
26 | NCI-H1975 | 0.859
27 | RERF-LC-KJ | 0.987
28 | ABC-1 | 0.892
29 | NCI-H358 | 0.981
30 | NCI-H650 | 0.819
31 | PC-3 [JPC-3] | 1.07

Same assay, conditions: 0.03162 µM

Row | Cell Line | relative viability
32 | 201T | 0.987
33 | NCI-H1915 | 0.932
34 | HCC-827 | 1.03
35 | LXF-289 | 0.977
36 | NCI-H23 | 0.797
37 | NCI-H1299 | 1.05
38 | NCI-H647 | 0.874
39 | CAL-12T | 0.849
40 | NCI-H1651 | 0.947
41 | EPLC-272H | 0.707
42 | NCI-H2228 | 0.991
43 | NCI-H1792 | 0.851
44 | NCI-H1355 | 0.958
45 | NCI-H3122 | 0.942
46 | NCI-H1437 | 0.911
47 | NCI-H1755 | 0.974
48 | NCI-H2023 | 0.909
49 | HCC-15 | 0.925
50 | NCI-H1793 | 0.816
51 | PC-14 | 0.926
52 | EKVX | 1.05
53 | LC-2-ad | 0.703
54 | NCI-H1563 | 1.16
55 | NCI-H1944 | 1.07
56 | NCI-H1975 | 0.975
57 | RERF-LC-KJ | 1.01
58 | ABC-1 | 0.879
59 | NCI-H358 | 0.744
60 | NCI-H650 | 0.821
61 | PC-3 [JPC-3] | 0.99

Same assay, conditions: 0.1 µM

Row | Cell Line | relative viability
62 | 201T | 0.977
63 | NCI-H1915 | 0.544
64 | HCC-827 | 0.927
65 | LXF-289 | 0.651
66 | NCI-H23 | 0.179
67 | NCI-H1299 | 0.924
68 | NCI-H647 | 0.161
69 | CAL-12T | 0.718
70 | NCI-H1651 | 0.915
71 | EPLC-272H | 0.117
72 | NCI-H2228 | 0.279
73 | NCI-H1792 | 0.416
74 | NCI-H1355 | 0.638
75 | NCI-H3122 | 0.243
76 | NCI-H1437 | 0.804
77 | NCI-H1755 | 0.695
78 | NCI-H2023 | 0.266
79 | HCC-15 | 0.466
80 | NCI-H1793 | 0.314
81 | PC-14 | 0.681
82 | EKVX | 0.958
83 | LC-2-ad | 0.222
84 | NCI-H1563 | 0.924
85 | NCI-H1944 | 0.649
86 | NCI-H1975 | 0.612
87 | RERF-LC-KJ | 0.765
88 | ABC-1 | 0.212
89 | NCI-H358 | 0.204
90 | NCI-H650 | 0.589
91 | PC-3 [JPC-3] | 0.751

Same assay, conditions: 0.3162 µM

Row | Cell Line | relative viability
92 | 201T | 0.391
93 | NCI-H1915 | 0.0978
94 | HCC-827 | 0.441
95 | LXF-289 | 0.0735
96 | NCI-H23 | 0.141
97 | NCI-H1299 | 0.291
98 | NCI-H647 | 0.0642
99 | CAL-12T | 0.159
100 | NCI-H1651 | 0.3
101 | EPLC-272H | 0.26
102 | NCI-H2228 | 0.142
103 | NCI-H1792 | 0.168
104 | NCI-H1355 | 0.174
105 | NCI-H3122 | 0.173
106 | NCI-H1437 | 0.184
107 | NCI-H1755 | 0.332
108 | NCI-H2023 | 0.0935
109 | HCC-15 | 0.15
110 | NCI-H1793 | 0.161
111 | PC-14 | 0.0519
112 | EKVX | 0.254
113 | LC-2-ad | 0.211
114 | NCI-H1563 | 0.733
115 | NCI-H1944 | 0.203
116 | NCI-H1975 | 0.207
117 | RERF-LC-KJ | 0.211
118 | ABC-1 | 0.395
119 | NCI-H358 | 0.118
120 | NCI-H650 | 0.198
121 | PC-3 [JPC-3] | 0.281

Same assay, conditions: 1 µM

Row | Cell Line | relative viability
122 | 201T | 0.255
123 | NCI-H1915 | 0.117
124 | HCC-827 | 0.284
125 | LXF-289 | 0.0855
126 | NCI-H23 | 0.17
127 | NCI-H1299 | 0.266
128 | NCI-H647 | 0.0923
129 | CAL-12T | 0.198
130 | NCI-H1651 | 0.109
131 | EPLC-272H | 0.0971
132 | NCI-H2228 | 0.228
133 | NCI-H1792 | 0.114
134 | NCI-H1355 | 0.163
135 | NCI-H3122 | 0.145
136 | NCI-H1437 | 0.174
137 | NCI-H1755 | 0.291
138 | NCI-H2023 | 0.11
139 | HCC-15 | 0.146
140 | NCI-H1793 | 0.196
141 | PC-14 | 0.0481
142 | EKVX | 0.165
143 | LC-2-ad | 0.215
144 | NCI-H1563 | 0.573
145 | NCI-H1944 | 0.194
146 | NCI-H1975 | 0.159
147 | RERF-LC-KJ | 0.237
148 | ABC-1 | 0.265
149 | NCI-H358 | 0.136
